Data: PubChem BioAssay (NCI)
“And” between values parts separate entries of the source, which are not always exact repeats. Identical values can stand only once.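 In this assay, cells in 96-well plates receive the compound at five concentrations for 48 hours. Endpoints are linearly interpolated between the surrounding concentrations. The concentration for 50% growth inhibition is given as GI50. TGI is the concentration that stops growth completely.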

Legend:
Experiment in all cases: NCI-60 cell line screen, 48 h
CCRF-CEM leukemia = test system: CCRF-CEM leukemia
HS 578T breast = test system: HS 578T breast
MALME-3M melanoma = test system: MALME-3M melanoma
OVCAR-3 ovarian = test system: OVCAR-3 ovarian
OVCAR-4 ovarian = test system: OVCAR-4 ovarian
RXF 393 renal = test system: RXF 393 renal
SK-MEL-28 melanoma = test system: SK-MEL-28 melanoma
T-47D breast = test system: T-47D breast
U251 CNS = test system: U251 CNS
UACC-257 melanoma = test system: UACC-257 melanoma

Row | SMILES | GI50 (CCRF-CEM leukemia) | TGI (CCRF-CEM leukemia) [µM] | GI50 (HS 578T breast) | TGI (HS 578T breast) [µM] | GI50 (MALME-3M melanoma) | TGI (MALME-3M melanoma) | GI50 (OVCAR-3 ovarian) | TGI (OVCAR-3 ovarian) | GI50 (OVCAR-4 ovarian) | TGI (OVCAR-4 ovarian) | GI50 (RXF 393 renal) | TGI (RXF 393 renal) | GI50 (SK-MEL-28 melanoma) | TGI (SK-MEL-28 melanoma) [µM] | GI50 (T-47D breast) | TGI (T-47D breast) | GI50 (U251 CNS) | TGI (U251 CNS) | GI50 (UACC-257 melanoma) | TGI (UACC-257 melanoma)
1 | N#CC1c2ccccc2C=CN1C(=O)CCCl (configuration not stated) | 3.45 µM | 21.2 | 17.4 µM | 47.3 | 2 µM | 4.01 µM | 2.51 µM | 6.1 µM | 2.79 µM | 10.7 µM | 11.8 µM | 25.9 µM | 10.7 µM | 24 | 3.65 µM | 17.1 µM | 17.6 µM | 32 µM | 13.1 µM | 26.5 µM
2 | Cc1nn(-c2ccc(Cl)cc2)c2ncnc(N/N=C/c3ccccc3O)c12 | 0.342 µM and 0.23 µM | > 100 | 4.12 µM and 2.12 µM | > 88.1 | 1.19 µM and 0.508 µM | 9.56 µM and 7.85 µM | 0.38 µM and 0.278 µM | 19.7 µM and 29.4 µM | 0.436 µM and 0.237 µM | 50.9 µM and 14.2 µM | 1.97 µM and 0.683 µM | 21.7 µM and 11.3 µM | 1.56 µM and 0.494 µM | > 100 | 2.09 µM and 0.89 µM | > 100 µM and 23.5 µM | 0.508 µM and 0.37 µM | 16.8 µM and 16.2 µM | 2.68 µM and 1.31 µM | 16.1 µM and 39.3 µM
3 | CSC1=Nc2c(c(C)c(C)n2COC(CO)CO)C2=NC(=O)CN12 | > 100 µM | > 100 | > 100 µM | > 100 | > 100 µM | > 100 µM | > 100 µM | > 100 µM | > 100 µM | > 100 µM | > 100 µM | > 100 µM | > 100 µM | > 100 | > 100 µM | > 100 µM | > 100 µM | > 100 µM | > 100 µM | > 100 µM
4 | CC(=O)ON1CCCC(P(=O)(OCOC(=O)C(C)(C)C)OCOC(=O)C(C)(C)C)C1=O (configuration not stated) | 0.125 µM | 7.81 | 0.603 µM | 4.4 | 0.453 µM | 6.63 µM | 0.775 µM | 4.49 µM | 1.19 µM | 13.5 µM | 0.308 µM | 1.19 µM | 0.483 µM | 1.42 | 0.435 µM | 7.5 µM | 0.458 µM | 5.58 µM | 2.41 µM | 19.5 µM
5 | CC1(C)N=C(N)N=C(N)N1c1ccc(CCC(=O)Nc2ccc(S(=O)(=O)F)cc2)cc1 | 0.73 µM | > 100 | > 75.8 µM | > 100 | 10.9 µM | > 100 µM | 8.03 µM | > 100 µM | > 78.5 µM | > 100 µM | 0.307 µM | > 100 µM | 8.22 µM | > 100 | 16.2 µM | > 100 µM | 2.01 µM | > 100 µM | 15.5 µM | > 100 µM
6 | COc1cc2c(N3CCN(C(=O)Nc4ccc(OC(C)C)cc4)CC3)ncnc2cc1OCCCN1CCCCC1 | 18.3 µM | > 79.3 | 10.4 µM | 61.1 | 14.3 µM | 29 µM | 22.2 µM | > 59 µM | 14.4 µM | 53.9 µM | 8.61 µM | 23.6 µM | 15.1 µM | 30.9 | 16.6 µM | 61.5 µM | 14 µM | 41.8 µM | 10.3 µM | 23.6 µM
7 | COc1cc(CNc2nc3cc(N)cc(N)c3nc2-c2ccccc2)cc(OC)c1 | 1.72 µM | 5.68 | 8.53 µM | > 100 | 4.86 µM | 33.8 µM | 1.86 µM | 4.52 µM | 0.014 µM | 0.974 µM | 6.09 µM | 58.5 µM | 1.76 µM | 8.62 | 1.67 µM | 4.57 µM | 5.08 µM | > 100 µM | – | > 100 µM
8 | COc1cc2c(cc1Nc1nc(N3CCc4ccccc43)c3cc[nH]c3n1)N(C(=O)CN(C)C)CC2 | 0.611 µM | 1.49 | 4.52 µM | 11.4 | 5.03 µM | 11 µM | 2.08 µM | 4.98 µM | 2.84 µM | 9.04 µM | 3.55 µM | 8.89 µM | 1.4 µM | 3.38 | 7.91 µM | 16.7 µM | 4.67 µM | 9.83 µM | 4.25 µM | 9.3 µM
9 | O=C(/C=C/C12c3ccccc3C(c3ccccc31)C1C(=O)NC(=O)C12)c1ccccn1 (configuration not stated) | 1.44 µM | 9.92 | 3.2 µM | 23 | 2.14 µM | 5.05 µM | 1.45 µM | 2.88 µM | 2.69 µM | 11.7 µM | 1.61 µM | 3.12 µM | 2.03 µM | 3.86 | 1.73 µM | 5.26 µM | 1.4 µM | 2.74 µM | 1.88 µM | 3.56 µM
10 | CCN(CC)Cc1cc(Nc2nc(NC3CCC(N(C)C)CC3)c3ccccc3n2)ccc1OC (configuration not stated) | 2.5 µM | 16.8 | 0.677 µM | 14.5 | 1.61 µM | 3.73 µM | 11.6 µM | 24.7 µM | 4.24 µM | 18.3 µM | 0.578 µM | 8.44 µM | 2.41 µM | 5.17 | 5.4 µM | 18.9 µM | 3.61 µM | 14.5 µM | 1.82 µM | 3.84 µM
11 | Cc1cccc(NC(=O)c2sc3nc4c(cc3c2N)C(=O)CCC4)c1 | 2.26 µM | > 100 | 0.291 µM | 12.9 | 0.311 µM | 16.9 µM | 0.257 µM | 1.18 µM | 0.706 µM | 32.5 µM | 0.252 µM | – | 1.53 µM | > 62.3 | 0.397 µM | > 100 µM | 0.316 µM | > 34.6 µM | – | > 100 µM
12 | COc1ccc(OC)c(/C=C/c2nc(=S)n(-c3ccc(Cl)cc3)[nH]2)c1 | 4.77 µM | > 100 | 3.1 µM | > 100 | 70.6 µM | > 100 µM | 3.34 µM | 21.4 µM | 20.6 µM | > 100 µM | 3.38 µM | 38.7 µM | 11.1 µM | > 100 | 4.51 µM | > 100 µM | 6.88 µM | > 100 µM | > 100 µM | > 100 µM
13 | CCCCCCN(CCCCCC)C(=S)N/N=C(\C)c1ccccn1 | – | 4.39 | – | 4.46 | – | 3.17 µM | – | 2.83 µM | – | 3.16 µM | – | 2.78 µM | – | 3.04 | – | 1.91 µM | – | 1.71 µM | – | 4.34 µM
14 | c1ccc(-c2[nH]ncc2-c2ccnc(-c3ccc(OCCn4ccnc4)cc3)c2)nc1 | 17.3 µM | > 25 | > 25 µM | > 25 | 12.2 µM | > 25 µM | 22.4 µM | > 25 µM | 16.1 µM | > 25 µM | > 25 µM | > 25 µM | > 25 µM | > 25 | 5.68 µM | > 25 µM | > 25 µM | > 25 µM | > 25 µM | > 25 µM
15 | Cn1nccc1Nc1nccc(-c2ccn([C@H](CO)c3ccc(Cl)c(F)c3)c(=O)c2)n1 | 15.7 µM | > 85.1 | 30.8 µM | > 100 | 0.0289 µM | 0.307 µM | 37.5 µM | > 100 µM | 33.5 µM | > 100 µM | 20.4 µM | 65.5 µM | 0.104 µM | > 100 | 26.5 µM | > 100 µM | 20.8 µM | > 100 µM | 0.158 µM | > 100 µM
16 | COc1ccc(OC)c(NCC(=O)n2nc(/C=C\c3ccc(O)c(OC)c3)cc2/C=C\c2ccc(O)c(OC)c2)c1 | 0.474 µM | > 100 | 2.31 µM | 19.2 | 3.01 µM | 14.6 µM | 2.58 µM | 13.9 µM | 3.43 µM | 22.7 µM | 1.51 µM | 3.19 µM | 2.66 µM | 12.3 | 3.05 µM | 14.6 µM | 2.36 µM | 12 µM | 3.28 µM | 14.8 µM
17 | Cc1c(C(=N)C(C#N)C#N)c(=N)oc2c1ccc1ccccc12 | 13 µM | > 100 | 10.5 µM | 66.2 | 22.3 µM | 80.7 µM | 14.7 µM | 40.8 µM | 19.7 µM | > 100 µM | 2.76 µM | 15.4 µM | 22.5 µM | 60.8 | 10.1 µM | > 100 µM | 14.5 µM | 37.2 µM | 28.6 µM | > 100 µM
18 | O=C1Oc2ccccc2C(=O)/C1=C1/C=C(c2ccccc2)SS1 | – | 49.6 | – | > 100 | – | > 100 µM | – | > 100 µM | – | > 100 µM | – | > 100 µM | – | > 100 | – | > 100 µM | – | > 100 µM | – | > 100 µM
19 | Cn1c([N+](=O)[O-])cnc1C=C1C(=O)c2ccccc2C1=O | 1.85 µM | 6.53 | 2.43 µM | 8.71 | 3.44 µM | 11.6 µM | 4.67 µM | 14.8 µM | 6.36 µM | 55.4 µM | 2.6 µM | 10.3 µM | 2.56 µM | 7.4 | 11.4 µM | 44.6 µM | 5.8 µM | 20.7 µM | 3.12 µM | 14.7 µM
20 | O=C1C=C[C@H](O)[C@@]2(CO)O[C@@H]12 | 2.7 µM | 12.3 | 30.6 µM | > 83.6 | 2.53 µM | 9.32 µM | 3.31 µM | 10.7 µM | 13 µM | 29.4 µM | 4.96 µM | 12 µM | 12.8 µM | 25.7 | 8.16 µM | 26.3 µM | 9.26 µM | 23.2 µM | 9.25 µM | 23.6 µM
21 | CCN=c1sc2c(n1NC(=O)c1cc3ccc1CCc1ccc(cc1)CC3)C(=O)c1ccccc1C2=O | 1.01 µM | 33.3 | 0.784 µM | 2.28 | 0.524 µM | 0.978 µM | 0.567 µM | 1.52 µM | 0.469 µM | 0.906 µM | 0.504 µM | 0.976 µM | 0.663 µM | 1.18 | 0.706 µM | 2.34 µM | 0.498 µM | 1.04 µM | 0.551 µM | 1.07 µM
